Numbers after ± are expanded uncertainties.
Test: xn = mol fraction of the nth substance listed
Conditions: Liquid, Vibrating tube method

Q: What does the source list for CCCCCCCCCC [decane] + CCCCCC?
A: mass density (323.14 K, 13000 kPa, x2 = 0.2185): 707.88 ± 0.34 kg/m3; mass density (323.14 K, 13000 kPa, x2 = 0.4968): 691.97 ± 0.36 kg/m3; mass density (323.14 K, 14000 kPa, x2 = 0.0456): 717.02 ± 0.34 kg/m3; mass density (323.14 K, 14000 kPa, x2 = 0.2185): 708.71 ± 0.35 kg/m3; mass density (323.14 K, 14000 kPa, x2 = 0.4968): 692.85 ± 0.36 kg/m3; mass density (323.14 K, 15000 kPa, x2 = 0.0456): 717.82 ± 0.35 kg/m3; mass density (323.14 K, 15000 kPa, x2 = 0.2185): 709.54 ± 0.36 kg/m3; mass density (323.14 K, 15000 kPa, x2 = 0.4968): 693.71 ± 0.37 kg/m3; mass density (323.14 K, 16000 kPa, x2 = 0.0456): 718.6 ± 0.36 kg/m3; mass density (323.14 K, 16000 kPa, x2 = 0.2185): 710.33 ± 0.37 kg/m3; mass density (323.14 K, 16000 kPa, x2 = 0.4968): 694.57 ± 0.38 kg/m3; mass density (323.14 K, 17000 kPa, x2 = 0.0456): 719.38 ± 0.37 kg/m3; mass density (323.14 K, 17000 kPa, x2 = 0.2185): 711.14 ± 0.37 kg/m3; mass density (323.14 K, 17000 kPa, x2 = 0.4968): 695.4 ± 0.39 kg/m3; mass density (323.14 K, 18000 kPa, x2 = 0.0456): 720.14 ± 0.37 kg/m3; mass density (323.14 K, 18000 kPa, x2 = 0.2185): 711.93 ± 0.38 kg/m3; mass density (323.14 K, 18000 kPa, x2 = 0.4968): 696.25 ± 0.4 kg/m3; mass density (323.14 K, 19000 kPa, x2 = 0.0456): 720.9 ± 0.38 kg/m3; mass density (323.14 K, 19000 kPa, x2 = 0.2185): 712.7 ± 0.39 kg/m3; mass density (323.14 K, 19000 kPa, x2 = 0.4968): 697.05 ± 0.41 kg/m3; mass density (323.14 K, 20000 kPa, x2 = 0.0456): 721.64 ± 0.39 kg/m3; mass density (323.14 K, 20000 kPa, x2 = 0.2185): 713.47 ± 0.4 kg/m3; mass density (323.14 K, 20000 kPa, x2 = 0.4968): 697.87 ± 0.42 kg/m3; mass density (323.14 K, 21000 kPa, x2 = 0.0456): 722.37 ± 0.4 kg/m3; mass density (323.14 K, 21000 kPa, x2 = 0.2185): 714.23 ± 0.41 kg/m3; mass density (323.14 K, 21000 kPa, x2 = 0.4968): 698.66 ± 0.42 kg/m3; mass density (323.14 K, 22000 kPa, x2 = 0.0456): 723.1 ± 0.4 kg/m3; mass density (323.14 K, 22000 kPa, x2 = 0.2185): 714.97 ± 0.41 kg/m3; mass density (323.14 K, 22000 kPa, x2 = 0.4968): 699.42 ± 0.43 kg/m3; mass density (323.14 K, 23000 kPa, x2 = 0.0456): 723.81 ± 0.41 kg/m3; mass density (323.14 K, 23000 kPa, x2 = 0.2185): 715.7 ± 0.42 kg/m3; mass density (323.14 K, 23000 kPa, x2 = 0.4968): 700.17 ± 0.44 kg/m3; mass density (323.14 K, 24000 kPa, x2 = 0.0456): 724.52 ± 0.42 kg/m3; mass density (323.14 K, 24000 kPa, x2 = 0.2185): 716.43 ± 0.43 kg/m3; mass density (323.14 K, 24000 kPa, x2 = 0.4968): 700.91 ± 0.45 kg/m3; mass density (323.14 K, 25000 kPa, x2 = 0.0456): 725.21 ± 0.43 kg/m3; mass density (323.14 K, 25000 kPa, x2 = 0.2185): 717.13 ± 0.44 kg/m3; mass density (323.14 K, 25000 kPa, x2 = 0.4968): 701.65 ± 0.46 kg/m3; mass density (323.16 K, 1000 kPa, x2 = 0.7524): 659.51 ± 0.27 kg/m3; mass density (323.16 K, 2000 kPa, x2 = 0.7524): 660.73 ± 0.28 kg/m3; mass density (323.16 K, 3000 kPa, x2 = 0.7524): 661.92 ± 0.29 kg/m3; mass density (323.16 K, 4000 kPa, x2 = 0.7524): 663.04 ± 0.29 kg/m3; mass density (323.16 K, 5000 kPa, x2 = 0.7524): 664.17 ± 0.3 kg/m3; mass density (323.16 K, 6000 kPa, x2 = 0.7524): 665.29 ± 0.31 kg/m3; mass density (323.16 K, 7000 kPa, x2 = 0.7524): 666.38 ± 0.32 kg/m3; mass density (323.16 K, 8000 kPa, x2 = 0.7524): 667.43 ± 0.33 kg/m3; mass density (323.16 K, 9000 kPa, x2 = 0.7524): 668.5 ± 0.34 kg/m3; mass density (323.16 K, 10000 kPa, x2 = 0.7524): 669.53 ± 0.34 kg/m3; mass density (323.16 K, 10990 kPa, x2 = 0.7524): 670.57 ± 0.35 kg/m3; mass density (323.16 K, 12000 kPa, x2 = 0.7524): 671.56 ± 0.36 kg/m3; mass density (323.16 K, 13000 kPa, x2 = 0.7524): 672.52 ± 0.37 kg/m3; mass density (323.16 K, 14000 kPa, x2 = 0.7524): 673.49 ± 0.38 kg/m3; mass density (323.16 K, 15000 kPa, x2 = 0.7524): 674.44 ± 0.39 kg/m3; mass density (323.16 K, 16000 kPa, x2 = 0.7524): 675.39 ± 0.4 kg/m3; mass density (323.16 K, 17000 kPa, x2 = 0.7524): 676.32 ± 0.41 kg/m3; mass density (323.16 K, 18000 kPa, x2 = 0.7524): 677.22 ± 0.42 kg/m3; mass density (323.16 K, 19000 kPa, x2 = 0.7524): 678.11 ± 0.43 kg/m3; mass density (323.16 K, 20000 kPa, x2 = 0.7524): 678.99 ± 0.44 kg/m3; mass density (323.16 K, 21000 kPa, x2 = 0.7524): 679.85 ± 0.44 kg/m3; mass density (323.16 K, 22000 kPa, x2 = 0.7524): 680.67 ± 0.45 kg/m3; mass density (323.16 K, 23000 kPa, x2 = 0.7524): 681.51 ± 0.46 kg/m3; mass density (323.16 K, 24000 kPa, x2 = 0.7524): 682.33 ± 0.47 kg/m3; mass density (323.16 K, 25000 kPa, x2 = 0.7524): 683.11 ± 0.48 kg/m3; mass density (332.58 K, 1000 kPa, x2 = 0.4968): 671.98 ± 0.27 kg/m3; mass density (332.58 K, 2000 kPa, x2 = 0.4968): 673.11 ± 0.27 kg/m3; mass density (332.58 K, 3000 kPa, x2 = 0.4968): 674.24 ± 0.28 kg/m3; mass density (332.58 K, 4000 kPa, x2 = 0.4968): 675.37 ± 0.29 kg/m3; mass density (332.58 K, 5000 kPa, x2 = 0.4968): 676.46 ± 0.29 kg/m3; mass density (332.58 K, 6000 kPa, x2 = 0.4968): 677.53 ± 0.3 kg/m3; mass density (332.58 K, 7000 kPa, x2 = 0.4968): 678.61 ± 0.31 kg/m3; mass density (332.58 K, 8000 kPa, x2 = 0.4968): 679.66 ± 0.32 kg/m3; mass density (332.58 K, 9000 kPa, x2 = 0.4968): 680.68 ± 0.33 kg/m3; mass density (332.58 K, 10000 kPa, x2 = 0.4968): 681.7 ± 0.34 kg/m3; mass density (332.58 K, 10990 kPa, x2 = 0.4968): 682.69 ± 0.34 kg/m3; mass density (332.58 K, 12000 kPa, x2 = 0.4968): 683.66 ± 0.35 kg/m3; mass density (332.58 K, 13000 kPa, x2 = 0.4968): 684.64 ± 0.36 kg/m3; mass density (332.58 K, 14000 kPa, x2 = 0.4968): 685.59 ± 0.37 kg/m3; mass density (332.58 K, 15000 kPa, x2 = 0.4968): 686.54 ± 0.38 kg/m3; mass density (332.58 K, 16000 kPa, x2 = 0.4968): 687.44 ± 0.39 kg/m3; mass density (332.58 K, 17000 kPa, x2 = 0.4968): 688.35 ± 0.4 kg/m3; mass density (332.58 K, 18000 kPa, x2 = 0.4968): 689.24 ± 0.4 kg/m3; mass density (332.58 K, 19000 kPa, x2 = 0.4968): 690.12 ± 0.41 kg/m3; mass density (332.58 K, 20000 kPa, x2 = 0.4968): 690.99 ± 0.42 kg/m3; mass density (332.58 K, 21000 kPa, x2 = 0.4968): 691.85 ± 0.43 kg/m3; mass density (332.58 K, 22000 kPa, x2 = 0.4968): 692.69 ± 0.44 kg/m3; mass density (332.58 K, 23000 kPa, x2 = 0.4968): 693.52 ± 0.45 kg/m3; mass density (332.58 K, 24000 kPa, x2 = 0.4968): 694.34 ± 0.46 kg/m3; mass density (332.58 K, 25000 kPa, x2 = 0.4968): 695.13 ± 0.47 kg/m3; mass density (332.93 K, 1000 kPa, x2 = 0.8991): 636.12 ± 0.28 kg/m3; mass density (332.93 K, 2000 kPa, x2 = 0.8991): 637.35 ± 0.29 kg/m3; mass density (332.93 K, 3000 kPa, x2 = 0.8991): 638.61 ± 0.29 kg/m3; mass density (332.93 K, 4000 kPa, x2 = 0.8991): 639.84 ± 0.3 kg/m3; mass density (332.93 K, 5000 kPa, x2 = 0.8991): 641.09 ± 0.31 kg/m3; mass density (332.93 K, 6000 kPa, x2 = 0.8991): 642.3 ± 0.32 kg/m3
